According to patent publication US10588317B2, “Isoxazoline-substituted benzamides and analogues as insecticides” (priority 2015, dated 2020):

Assays:
Format in all cases: in vivo
Spodoptera littoralis [1] = assay: Spodoptera littoralis (Egyptian cotton leaf worm), sprayed cotton leaf discs; conditions: foliar, 72 h, application rate 200 ppm, L1 larvae, 3 days after infestation, read-out: control (mortality, anti-feeding effect, growth inhibition)
Outline: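 Five first-instar larvae placed on dried cotton leaf discs (on agar) previously sprayed with aqueous dilutions of 10'000 ppm DMSO stocks. Scored at 3 days against untreated discs for mortality, feeding inhibition and growth inhibition; any category above untreated counts as control.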

Plutella xylostella = Plutella xylostella (diamond back moth), artificial diet; conditions: 120 h, application rate 200 ppm, L2 larvae, 5 days after infestation, read-out: effect in at least one of the two categories (mortality or growth inhibition)
Outline: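 L2 larvae (10-15 per well) fed on compound-treated, dried artificial diet; test solutions diluted in water from 10'000 ppm DMSO stocks. Readout 5 days post-infestation as mortality or growth inhibition versus untreated diet, with at least 80% effect at 200 ppm as threshold.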

Myzus persicae = Myzus persicae (green peach aphid): feeding/contact activity; conditions: 144 h, application rate 200 ppm, aphid population of mixed ages, 6 days after infestation, read-out: mortality
Procedure: Sunflower leaf discs were placed onto agar in a 24-well microtiter plate and sprayed with aqueous test solutions prepared from 10'000 ppm DMSO stock solutions. After drying, the leaf discs were infested with an aphid population of mixed ages. The samples were assessed for mortality 6 days after infestation.

Thrips tabaci = Thrips tabaci (onion thrips): feeding/contact activity; conditions: 144 h, application rate 200 ppm, Thrips population of mixed ages, 6 days after infestation, read-out: mortality
Procedure: Sunflower leaf discs were placed on agar in 24-well microtiter plates and sprayed with aqueous test solutions prepared from 10'000 ppm DMSO stock solutions. After drying the leaf discs were infested with a Thrips population of mixed ages. The samples were assessed for mortality 6 days after infestation.

Spodoptera littoralis [2] = assay: Spodoptera littoralis (Egyptian cotton leaf worm), uptake by lettuce roots from agar; conditions: 144 h, read-out: effect in at least one of the three categories (mortality, anti-feeding, or growth inhibition);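 further: 12.5 ppm test rate in agar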
Outline: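 Systemic test: Spodoptera eggs placed on lettuce leaves from seedlings raised 7 days on agar containing the compound (diluted from 10'000 ppm DMSO stock). Six days after infestation, larvae scored against untreated controls for mortality, feeding deterrence and growth inhibition.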

Euschistus heros = Euschistus heros (neotropical brown stink bug), sprayed soybean leaves; conditions: 120 h, application rate 200 ppm, N2 nymphs, 5 days after infestation, read-out: effect in at least one of the two categories (mortality or growth inhibition)
Outline: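 Scored 5 days post-infestation versus untreated controls, for both mortality and growth inhibition: N2 nymphs placed on agar-mounted soybean leaves previously sprayed at 200 ppm with aqueous test solutions from DMSO stocks and left to dry.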

Tetranychus urticae = Tetranychus urticae (two-spotted spider mite): feeding/contact activity; conditions: 192 h, application rate 200 ppm, mixed population (mobile stages), 8 days after infestation, read-out: mortality
Procedure: Bean leaf discs on agar in 24-well microtiter plates were sprayed with aqueous test solutions prepared from 10'000 ppm DMSO stock solutions. After drying the leaf discs were infested with a mite population of mixed ages. The samples were assessed for mortality on mixed population (mobile stages) 8 days after infestation.

Diabrotica balteata = Diabrotica balteata (corn root worm), sprayed maize sprouts; conditions: 96 h, application rate 200 ppm, L2 larvae, 4 days after infestation, read-out: effect in at least one of the two categories (mortality or growth inhibition)
Outline: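 Read-out at 4 days post-infestation: mortality and growth inhibition relative to untreated samples. Test solutions (200 ppm, from DMSO stocks) were sprayed onto agar-held maize sprouts, which after drying received 6–10 L2 larvae per well.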

CCS(=O)(=O)N1C[C@@H](NC(=O)c2ccc(C3=NO[C@@](c4cc(Cl)c(Cl)c(Cl)c4)(C(F)(F)F)C3)cc2Cl)CO1 [Compound A147, 2-chloro-N-[(4R)-2-ethylsulfonylisoxazolidin-4-yl]-4-[(5S)-5-(3,4,5-trichlorophenyl)-5-(trifluoromethyl)-4H-isoxazol-3-yl]benzamide]
≥ 80%: mortality at 200 ppm (Spodoptera littoralis [1]) | percent effect (mortality or growth inhibition) at 200 ppm (Plutella xylostella) | mortality at 200 ppm (Myzus persicae) | mortality at 200 ppm (Thrips tabaci) | percent control (mortality, anti-feedant effect or growth inhibition) at 12.5 ppm (Spodoptera littoralis [2]) | percent effect (mortality or growth inhibition) at 200 ppm (Euschistus heros) | mortality at 200 ppm (Tetranychus urticae) | percent effect (mortality or growth inhibition) at 200 ppm (Diabrotica balteata)

Cc1cc(C2=NO[C@@](c3cc(Cl)c(F)c(Cl)c3)(C(F)(F)F)C2)ccc1C(=O)NC1CON(S(=O)(=O)CCl)C1 (stereo partly drawn) [Compound A5, N-[2-(chloromethylsulfonyl)isoxazolidin-4-yl]-4-[(5S)-5-(3,5-dichloro-4-fluoro-phenyl)-5-(trifluoromethyl)-4H-isoxazol-3-yl]-2-methyl-benzamide]
≥ 80%: mortality at 200 ppm (Spodoptera littoralis [1]) | percent effect (mortality or growth inhibition) at 200 ppm (Plutella xylostella) | mortality at 200 ppm (Myzus persicae) | mortality at 200 ppm (Thrips tabaci) | percent control (mortality, anti-feedant effect or growth inhibition) at 12.5 ppm (Spodoptera littoralis [2]) | percent effect (mortality or growth inhibition) at 200 ppm (Euschistus heros) | mortality at 200 ppm (Tetranychus urticae) | percent effect (mortality or growth inhibition) at 200 ppm (Diabrotica balteata)

CNS(=O)(=O)N1C[C@@H](NC(=O)c2ccc(C3=NO[C@@](c4cc(Cl)cc(Cl)c4)(C(F)(F)F)C3)cc2Cl)CO1 [Compound A114, 2-chloro-4-[(5S)-5-(3,5-dichlorophenyl)-5-(trifluoromethyl)-4H-isoxazol-3-yl]-N-[(4R)-2-(methylsulfamoyl)isoxazolidin-4-yl]benzamide]
≥ 80%: mortality at 200 ppm (Spodoptera littoralis [1]) | percent effect (mortality or growth inhibition) at 200 ppm (Plutella xylostella) | mortality at 200 ppm (Myzus persicae) | mortality at 200 ppm (Thrips tabaci) | percent control (mortality, anti-feedant effect or growth inhibition) at 12.5 ppm (Spodoptera littoralis [2]) | percent effect (mortality or growth inhibition) at 200 ppm (Euschistus heros) | mortality at 200 ppm (Tetranychus urticae) | percent effect (mortality or growth inhibition) at 200 ppm (Diabrotica balteata)

CCOC(=O)N(C)S(=O)(=O)N1CC(NC(=O)c2ccc(C3=NO[C@@](c4cc(Cl)c(F)c(Cl)c4)(C(F)(F)F)C3)cc2C)CO1 (stereo partly drawn) [Compound A76]
≥ 80%: mortality at 200 ppm (Spodoptera littoralis [1]) | percent effect (mortality or growth inhibition) at 200 ppm (Plutella xylostella) | mortality at 200 ppm (Myzus persicae) | mortality at 200 ppm (Thrips tabaci) | percent control (mortality, anti-feedant effect or growth inhibition) at 12.5 ppm (Spodoptera littoralis [2]) | percent effect (mortality or growth inhibition) at 200 ppm (Euschistus heros) | mortality at 200 ppm (Tetranychus urticae) | percent effect (mortality or growth inhibition) at 200 ppm (Diabrotica balteata)

CCS(=O)(=O)N1C[C@@H](NC(=O)c2ccc(C3=NO[C@@](c4cc(Cl)cc(C(F)(F)F)c4)(C(F)(F)F)C3)cc2Cl)CO1 [Compound A122]
≥ 80%: mortality at 200 ppm (Spodoptera littoralis [1]) | percent effect (mortality or growth inhibition) at 200 ppm (Plutella xylostella) | mortality at 200 ppm (Myzus persicae) | mortality at 200 ppm (Thrips tabaci) | percent control (mortality, anti-feedant effect or growth inhibition) at 12.5 ppm (Spodoptera littoralis [2]) | percent effect (mortality or growth inhibition) at 200 ppm (Euschistus heros) | mortality at 200 ppm (Tetranychus urticae) | percent effect (mortality or growth inhibition) at 200 ppm (Diabrotica balteata)

CCNS(=O)(=O)N1CC(NC(=O)c2ccc(C3=NO[C@@](c4cc(Cl)c(F)c(Cl)c4)(C(F)(F)F)C3)cc2C)CO1 (stereo partly drawn) [Compound A95]
≥ 80%: mortality at 200 ppm (Spodoptera littoralis [1]) | percent effect (mortality or growth inhibition) at 200 ppm (Plutella xylostella) | mortality at 200 ppm (Myzus persicae) | mortality at 200 ppm (Thrips tabaci) | percent control (mortality, anti-feedant effect or growth inhibition) at 12.5 ppm (Spodoptera littoralis [2]) | percent effect (mortality or growth inhibition) at 200 ppm (Euschistus heros) | mortality at 200 ppm (Tetranychus urticae) | percent effect (mortality or growth inhibition) at 200 ppm (Diabrotica balteata)
